From US20260070917A1, “CYCLIN DEPENDENT KINASE DEGRADERS AND METHODS OF USE THEREOF” (Differentiated Therapeutics Inc, priority 2023, published 2026)

What was measured:
Format in all cases: cell-based
[1] = biological target: T1, CDK9 (Homo sapiens, UniProt P50750); assay: HiBit Assay Protocol for CDK9 (HIBIT protein quantification, degradation); conditions: HEK293-CDK9-Hibit cells, compound treatment for 6 hours; for Dmax: 6 h, read-out: CDK9 HIBIT Protein Quantification Maximum; for DC50: ABS DC50
T1 construct: host or cells: HEK293-CDK9-Hibit
T1 sequence (P50750 whole entry): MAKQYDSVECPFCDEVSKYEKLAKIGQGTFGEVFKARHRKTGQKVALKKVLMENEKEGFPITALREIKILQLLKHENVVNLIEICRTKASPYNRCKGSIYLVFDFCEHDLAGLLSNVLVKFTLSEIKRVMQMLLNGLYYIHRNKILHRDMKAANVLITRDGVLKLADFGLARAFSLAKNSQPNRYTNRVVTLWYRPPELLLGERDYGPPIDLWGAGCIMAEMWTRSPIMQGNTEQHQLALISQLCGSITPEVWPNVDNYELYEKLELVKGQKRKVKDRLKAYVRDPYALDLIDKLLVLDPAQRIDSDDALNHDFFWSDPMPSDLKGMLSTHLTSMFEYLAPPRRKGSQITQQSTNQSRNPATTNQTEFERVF
Method: HiBit Assay Protocol for CDK9
• 1. The culture medium for HEK293-CDK9-Hibit cell was prepared using DMEM with 10% FBS. • 2. Cells were cultivated in T-75 flasks in a cell culture incubator set at 37° C., 5% CO2, 95% relative humidity. Cells were allowed to reach 80-90% confluence before detaching and splitting. • 3. Cultivated cells were rinsed in T-75 flasks with 5 mL PBS. Aspirated off. Added 1.5 mL trypsin, and incubated the cells at 37° C. for approximately 5 minutes or until the cells detached and floated. • 4. Trypsin was inactivated by adding excess serum containing medium. • 5. Cells were harvested from flask into cell culture medium and then the cell number was counted. HEK293-CDK9-Hibit cells were seeded into 384-well plate (cell density: 1.6×10^5 cells/well/50 uL medium) in DMEM medium according to the plate map below and were incubated overnight at 37° C. and 5% CO2. • Note: Cell Cultured Medium: 90% DMEM+10% FBS+1% Penicillin-Streptomycin Liquid
• 1. Test compounds were dissolved at 3 mM DMSO stock solution. Transferred 45 uL of stock solution to a 384 pp-plate. Perform 3-fold, 10-point dilution via transferring 15 uL compound into 30 uL DMSO by using TECAN liquid handler. • 2. The plates were spinned at room temperature at 1,000 RPM for 1 minute. • 3. Transferred 50 nL of diluted compound from compound source plate into the cell plate by Echo. • 4. After compound treatment for 6 hours, removed the plate from incubators and equilibrated at room temperature for 15 minutes. Prepared the HiBit reagent consists of the following ratios: 10 mL of Nano-Glo®-HiBiT Lytic Buffer, 200 uL of Nano-Glo®-HiBiT Lytic Substrate and 100 uL of LgBiT Protein, mixed thoroughly. Added 20 uL of HiBit reagent into each well and spinned the plates at room temperature at 1,000 RPM for 1 minute to be detected. Plates were then shaken at 600 RPM at room temperature for 20 minutes, and read by EnVision. • 5. The inhibition activity was calculated following the formula below:
[formula] • Note: Where HC was obtained from cells treated with 0.1% DMSO only; LC was obtained from culture medium only. • 6. The ABS DC50 was calculated by fitting the Curve using Xlfit (v5.3.1.3), equation 201: […]

[2] = biological target: T2, CDK2 (Homo sapiens, UniProt P24941); assay: HiBit Assay Protocol for CDK2 (HIBIT protein quantification, degradation); conditions: HEK293-CDK2-Hibit cells, compound treatment for 6 hours; for DC50: ABS DC50
T2 construct: host or cells: HEK293-CDK2-Hibit
Method: HiBit Assay Protocol for CDK2
• 1. The culture medium for HEK293-CDK2-Hibit cells was prepared using DMEM with 10% FBS. • 2. Cells were cultivated in T-75 flasks in a cell culture incubator set at 37° C., 5% CO2, 95% relative humidity. Cells were allowed to reach 80-90% confluence before detaching and splitting. • 3. Cultivated cells were rinsed in T-75 flasks with 5 mL PBS. Aspirate off Added was 1.5 mL trypsin, and the cells were incubated at 37° C. for approximately 5 minutes or until the cells detached and floated. • 4. Trypsin was inactivated by adding excess serum containing medium. • 5. Cells were harvested from flask into cell culture medium and then the cell number was counted. HEK293-CDK2-Hibit cells were seeded into 384-well plate (cell density: 1.6×10^5 cells/well/50 uL medium) in DMEM medium according to the plate map below and incubated overnight at 37° C. and 5% CO2. • Note: Cell Cultured Medium: 90% DMEM+10% FBS+1% Penicillin-Streptomycin Liquid
(§1) • 1. Test compounds were dissolved at 10 mM DMS stock solution. 45 uL of stock solution was transferred to a 384 pp-plate. A 3-fold, 10-point dilution was performed via transferring 15 uL compound into 30 uL DMSO by using TECAN liquid handler. • 2. The plates were spinned at room temperature at 1,000 RPM for 1 minute. • 3. 50 nL of diluted compound was transferred from compound source plate into the cell plate by Echo. • 4. After compound treatment for 6 hours, the plate was removed from incubators and equilibrated at room temperature for 15 minutes. The HiBit reagent was prepared, consisting of the following ratios: 10 mL of Nano-Glo®-HiBiT Lytic Buffer, 200 μL of Nano-Glo®-HiBiT Lytic Substrate and 100 uL of LgBiT Protein, mixed thoroughly. 20 μL of HiBit reagent was added into each well and the plates were spinned at room temperature at 1,000 RPM for 1 minute to be detected. Then the plates were shaken at 600 RPM at room temperature for 20 minutes, and read by EnVision. • 5. The inhibition activity was calculated following the formula below:
(§2) [formula] • Note: Where HC is obtained from cells treated with […] only; LC is obtained from culture medium only. • 6. ABS DC50 was calculated by fitting the Curve using Xlfit (v5.3.1.3), equation 201: […]

[3] = biological target: T3, CCNE1 (Homo sapiens, UniProt P24864); assay: HiBit Assay Protocol for CCNE1 (HIBIT protein quantification, degradation); conditions: HEK293-CCNE1-Hibit cells, compound treatment for 6 hours
T3 construct: host or cells: HEK293-CCNE1-Hibit
T3 sequence (P24864 whole entry): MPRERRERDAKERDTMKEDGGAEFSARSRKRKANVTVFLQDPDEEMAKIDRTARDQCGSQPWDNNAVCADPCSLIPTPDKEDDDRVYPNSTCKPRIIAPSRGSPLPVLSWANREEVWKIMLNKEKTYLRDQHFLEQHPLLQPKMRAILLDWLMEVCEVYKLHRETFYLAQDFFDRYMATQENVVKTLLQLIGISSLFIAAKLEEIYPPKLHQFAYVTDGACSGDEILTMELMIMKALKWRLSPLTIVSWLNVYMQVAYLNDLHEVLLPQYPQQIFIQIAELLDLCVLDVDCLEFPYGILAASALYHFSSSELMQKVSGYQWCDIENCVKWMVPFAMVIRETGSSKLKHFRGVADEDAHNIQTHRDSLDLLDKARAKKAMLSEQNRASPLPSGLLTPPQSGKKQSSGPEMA
Method: HiBit Assay Protocol for CCNE1
• 1. The culture medium for HEK293-CCNE1-Hibit cell was prepared using EMEM with […]. • 2. Cells were cultivated in T-75 flasks in a cell culture incubator set at 37° C., 5% CO2, 95% relative humidity. Cells were allowed to reach 80-90% confluence before detaching and splitting. • 3. Cultivated cells were rinsed in T-75 flasks with 5 mL PBS. Aspirate off Added was 1.5 mL trypsin, and the cells were incubated at 37° C. for approximately 5 minutes or until the cells detached and floated. • 4. Trypsin was inactivated by adding excess serum containing medium. • 5. Cells were harvested from flask into cell culture medium and then the cell number was counted. HEK293-CCNE1-Hibit cell were seeded into 384-well plate (cell density: 1.6×10^5 cells/well/50 uL medium) in EMEM medium according to the plate map below and incubated overnight at 37° C. and […]. • Note: Cell Cultured Medium: 90% EMEM+10% FBS+1% Penicillin-Streptomycin Liquid
as §1, with “mM DMSO” for “mM DMS”, “45 μL” for “45 uL”, “100 μL” for “100 uL”, “Protein, mix” for “Protein, mixed”
as §2

Dmax [1] | CDK2 HIBIT Protein Quantification Maximum [2] | DC50 [2] | CCNE1 HIBIT Protein Quantification Maximum [3] | DC50 [1] | SMILES
5% | 63% | 12 nM | 20% | – | CC1CCCC1N1C(=O)C2(CC2)c2cnc(NC3CCN(S(=O)(=O)N4CC5(CCCN(C(=O)CCc6cccc7c6n(C)c(=O)n7C6CCC(=O)NC6=O)C5)C4)CC3)nc21 (stereo not drawn) [Compound 18]
25% | 19% | – | 26% | – | CC1CCCC1N1C(=O)C2(CC2)c2cnc(NC3CCN(S(=O)(=O)N4CC5(CN(C(=O)CCc6cccc7c6n(C)c(=O)n7C6CCC(=O)NC6=O)C5)C4)CC3)nc21 (stereo not drawn) [Compound 19]
71% | 46% | – | 29% | 86.3 nM | CC1CCCC1N1C(=O)C2(CC2)c2cnc(NC3CCN(S(=O)(=O)N4CC5(CCN(C(=O)CCc6cccc7c6n(C)c(=O)n7C6CCC(=O)NC6=O)CC5)C4)CC3)nc21 (stereo not drawn) [Compound 20]
28% | 54% | 41 nM | 28% | – | CC1CCCC1N1C(=O)C2(CC2)c2cnc(NC3CCN(S(=O)(=O)N4CCC5(CCN(C(=O)CCc6cccc7c6n(C)c(=O)n7C6CCC(=O)NC6=O)C5)C4)CC3)nc21 (stereo not drawn) [Compound 21]
35% | 57% | 44 nM | 18% | – | CC1CCCC1N1C(=O)C2(CC2)c2cnc(NC3CCN(S(=O)(=O)N4CC(N(C)C(=O)CCCc5cccc6c5n(C)c(=O)n6C5CCC(=O)NC5=O)C4)CC3)nc21 (stereo not drawn) [Compound 22, 4-(1-(2,6-dioxopiperidin-3-yl)-3-methyl-2-oxo-2,3-dihydro-1H-benzo[d]imidazol-4-yl)-N-methyl-N-(1-((4-((7′-(2-methylcyclopentyl)-6′-oxo-6′,7′-dihydrospiro[cyclopropane-1,5′-pyrrolo[2,3-d]pyrimidin]-2′-yl)amino)piperidin-1-yl)sulfonyl)azetidin-3-yl)butanamide]
49% | 64% | 98 nM | 20% | – | CC1CCCC1N1C(=O)C2(CC2)c2cnc(NC3CCN(S(=O)(=O)N4CC5CN(C(=O)CCCc6cccc7c6n(C)c(=O)n7C6CCC(=O)NC6=O)CC5C4)CC3)nc21 (stereo not drawn) [Compound 23]
-1% | 41% | – | 21% | – | CC1CCCC1N1C(=O)C2(CC2)c2cnc(NC3CCN(S(=O)(=O)N4CCCC45CCN(C(=O)CCCc4cccc6c4n(C)c(=O)n6C4CCC(=O)NC4=O)C5)CC3)nc21 (stereo not drawn) [Compound 24]
15% | 29% | – | 25% | – | CC1CCCC1N1C(=O)C2(CC2)c2cnc(NC3CCN(S(=O)(=O)N4CCC5(CCCN5C(=O)CCCc5cccc6c5n(C)c(=O)n6C5CCC(=O)NC5=O)C4)CC3)nc21 (stereo not drawn) [Compound 25]
9% | 42% | – | 8% | – | CC1CCCC1N1C(=O)C2(CC2)c2cnc(NC3CCN(S(=O)(=O)N4CC5(CCCCN5C(=O)CCCc5cccc6c5n(C)c(=O)n6C5CCC(=O)NC5=O)C4)CC3)nc21 (stereo not drawn) [Compound 26]
49% | 57% | 19 nM | 27% | – | CC1CCCC1N1C(=O)C2(CC2)c2cnc(NC3CCN(S(=O)(=O)N4CCN(C(=O)CCCc5cccc6c5n(C)c(=O)n6C5CCC(=O)NC5=O)CC4)CC3)nc21 (stereo not drawn) [Compound 27]
8% | 42% | – | 8% | – | CC1CCCC1N1C(=O)C2(CC2)c2cnc(NC3CCN(S(=O)(=O)N4CC5(CCCN(C(=O)CCCc6cccc7c6n(C)c(=O)n7C6CCC(=O)NC6=O)C5)C4)CC3)nc21 (stereo not drawn) [Compound 28]
57% | 76% | 35 nM | 47% | 95.8 nM | CC1CCCC1N1C(=O)C2(CC2)c2cnc(NC3CCN(S(=O)(=O)N4CC5(CN(C(=O)CCCc6cccc7c6n(C)c(=O)n7C6CCC(=O)NC6=O)C5)C4)CC3)nc21 (stereo not drawn) [Compound 29]
75% | 72% | 11 nM | 37% | 17.6 nM | CC1CCCC1N1C(=O)C2(CC2)c2cnc(NC3CCN(S(=O)(=O)N4CC5(CCN(C(=O)CCCc6cccc7c6n(C)c(=O)n7C6CCC(=O)NC6=O)CC5)C4)CC3)nc21 (stereo not drawn) [Compound 30]
15% | 62% | 17 nM | 14% | – | CC1CCCC1N1C(=O)C2(CC2)c2cnc(NC3CCN(S(=O)(=O)N4CC5C4CCN5C(=O)CCCc4cccc5c4n(C)c(=O)n5C4CCC(=O)NC4=O)CC3)nc21 (stereo not drawn) [Compound 31]
41% | 59% | 86 nM | 22% | – | CC1CCCC1N1C(=O)C2(CC2)c2cnc(NC3CCN(S(=O)(=O)N4CCC5(CCN(C(=O)CCCc6cccc7c6n(C)c(=O)n7C6CCC(=O)NC6=O)C5)C4)CC3)nc21 (stereo not drawn) [Compound 32]
